This passage reports Dmax results from US20260042762A1 (Kymera Therapeutics, Inc., priority 2018, published 2026).

Structures can show the parent of a compound that is named as a salt.

The experiment has as its target T1, MerTK (Homo sapiens, UniProt Q12866).
T1 construct: endogenous in cells; host or cells: Jurkat cells
T1 sequence (Q12866 21-999): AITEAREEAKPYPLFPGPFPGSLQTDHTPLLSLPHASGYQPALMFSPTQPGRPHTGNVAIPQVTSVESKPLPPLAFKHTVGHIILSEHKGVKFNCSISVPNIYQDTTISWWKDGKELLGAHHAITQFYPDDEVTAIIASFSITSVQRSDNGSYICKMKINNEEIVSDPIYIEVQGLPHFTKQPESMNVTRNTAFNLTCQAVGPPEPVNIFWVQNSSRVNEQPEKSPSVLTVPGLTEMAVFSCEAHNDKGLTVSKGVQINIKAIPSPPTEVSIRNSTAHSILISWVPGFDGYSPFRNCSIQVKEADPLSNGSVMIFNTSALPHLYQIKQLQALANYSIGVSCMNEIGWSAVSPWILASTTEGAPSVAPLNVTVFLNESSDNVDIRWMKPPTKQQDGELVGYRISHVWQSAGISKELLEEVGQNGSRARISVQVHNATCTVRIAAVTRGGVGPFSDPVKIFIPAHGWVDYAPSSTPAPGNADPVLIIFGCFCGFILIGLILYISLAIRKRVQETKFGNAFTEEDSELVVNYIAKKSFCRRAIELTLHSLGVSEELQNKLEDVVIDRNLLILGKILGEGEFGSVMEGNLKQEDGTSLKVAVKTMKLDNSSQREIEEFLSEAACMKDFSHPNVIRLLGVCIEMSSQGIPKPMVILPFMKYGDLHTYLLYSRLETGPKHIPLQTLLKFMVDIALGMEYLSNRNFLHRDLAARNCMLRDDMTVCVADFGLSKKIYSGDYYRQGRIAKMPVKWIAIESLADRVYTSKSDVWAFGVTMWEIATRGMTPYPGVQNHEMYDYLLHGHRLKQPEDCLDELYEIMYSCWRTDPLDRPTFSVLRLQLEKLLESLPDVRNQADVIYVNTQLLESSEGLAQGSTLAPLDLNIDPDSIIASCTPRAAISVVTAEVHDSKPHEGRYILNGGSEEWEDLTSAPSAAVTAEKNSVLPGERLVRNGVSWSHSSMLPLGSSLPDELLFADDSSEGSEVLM
Briefly: MerTk degradation in Jurkat cells (Western blot). In kind it is cell-based. The settings on record: Jurkat, 4 h, 0.001-1 μM, 4 hour-incubation at 37° C., read-out: Jurkat Max % MerTK Degradation. Put shortly: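 MerTK degradation was read by near-infrared Western blot, normalized to actin, in BCA-quantified lysates of Jurkat cells exposed to 0.001-1 μM compound for 4 h at 37 °C.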
For orientation: Immunoblotting shows a protein as a band on a membrane.
As for `Cc1ncsc1-c1ccc(CNC(=O)[C@@H]2C[C@@H](O)CN2C(=O)[C@@H](NC(=O)C2(F)CC2)C(C)(C)C)c(OCCCCN2CCN(Cc3ccc(-c4cn([C@H]5CC[C@H](O)CC5)c5nc(NCCC(F)(F)F)ncc45)cc3)CC2)c1` [I-179, (2S,4R)-1-[(2S)-2-[(1-fluorocyclopropyl)formamido]-3,3-dimethylbutanoyl]-4-hydroxy-N-[[4-(4-methyl-1,3-thiazol-5-yl)-2-(4-[4-[(4-[7-[trans-4-hydroxycyclohexyl]-2-[(3,3,3-trifluoropropyl)amino]pyrrolo[2,3-d]pyrimidin-5-yl]phenyl)methyl]piperazin-1-yl]butoxy)phenyl]methyl]pyrrolidine-2-carboxamide], the Dmax lay within 20 to 50%.
With `Cc1cc(CNCc2ccc(C(=O)N3CCC(C4CCN(Cc5ccc(-c6cn([C@H]7CC[C@H](O)CC7)c7nc(NCCC(F)(F)F)ncc67)cc5)CC4)CC3)cc2)ccc1-c1ccc2nn(CC3CC3)cc2c1` [I-180, trans-4-[5-(4-[[1-(4-[[([4-[2-(Cyclopropylmethyl)indazol-5-yl]-3-methylphenyl]methyl)amino]methyl]benzoyl)-[4,4-bipiperidin]-1-yl]methyl]phenyl)-2-[(3,3,3-trifluoropropyl)amino]pyrrolo[2,3-d]pyrimidin-7-yl]cyclohexan-1-ol hydrochloride], the Dmax was < 20%.
Regarding `O=C(c1ccc(CNCc2ccc(-c3ccc4c(cnn4CC4CC4)c3)cc2)cc1)N1CC(C2CCN(Cc3ccc(-c4cn([C@H]5CC[C@H](O)CC5)c5nc(NCCC(F)(F)F)ncc45)cc3)CC2)C1` [I-181, trans-4-[5-[4-([4-[1-(4-[[([4-[1-(Cyclopropylmethyl)indazol-5-yl]phenyl]methyl)amino]methyl]benzoyl)azetidin-3-yl]piperidin-1-yl]methyl)phenyl]-2-[(3,3,3-trifluoropropyl)amino]pyrrolo[2,3-d]pyrimidin-7-yl]cyclohexan-1-ol], the Dmax is < 20%.
As for `CN1CCN(Cc2ccc(-c3ccc(CO[C@H]4CCC[C@@H]4NC(=O)c4cc(-c5cnn(CCOCCOCCCc6ccc7c(c6)n(C)c(=O)n7C6CCC(=O)NC6=O)c5)cnc4N)cc3)cc2)CC1` (stereo partly drawn) [I-182, 2-Amino-5-(1-[2-(2-[3-[1-(2,6-dioxopiperidin-3-yl)-3-methyl-2-oxo-1,3-benzodiazol-5-yl]propoxy]ethoxy)ethyl]pyrazol-4-yl]-N-[(1S,2S)-2-([4-[(4-methylpiperazin-1-yl)methyl]-[1,1-biphenyl]-4-yl]methoxy)cyclopentyl]pyridine-3-carboxamide], the figure is 20 to 50%; as for `CN1CCN(Cc2ccc(-c3ccc(CO[C@H]4CCC[C@@H]4NC(=O)c4cc(-c5cnn(CCCc6cccc7c6n(C)c(=O)n7C6CCC(=O)NC6=O)c5)cnc4N)cc3)cc2)CC1` (stereo partly drawn) [I-183, 2-Amino-5-(1-[3-[1-(2,6-dioxopiperidin-3-yl)-3-methyl-2-oxo-1,3-benzodiazol-4-yl]propyl]pyrazol-4-yl)-N-[(1S,2S)-2-([4-[(4-methylpiperazin-1-yl)methyl]-[1,1-biphenyl]-4-yl]methoxy)cyclopentyl]pyridine-3-carboxamide], < 20%; as for `CN1CCN(Cc2ccc(-c3ccc(CO[C@H]4CCC[C@@H]4NC(=O)c4cc(-c5cnn(CCOCCOCCCc6cccc7c6n(C)c(=O)n7C6CCC(=O)NC6=O)c5)cnc4N)cc3)cc2)CC1` (stereo partly drawn) [I-184, 2-Amino-5-[1-[2-(2-[3-[1-(2,6-dioxopiperidin-3-yl)-3-methyl-2-oxo-1,3-benzodiazol-4-yl]propoxy]ethoxy)ethyl]pyrazol-4-yl]-N-[(1S,2S)-2-([4-[(4-methylpiperazin-1-yl)methyl]-[1,1-biphenyl]-4-yl]methoxy)cyclopentyl]pyridine-3-carboxamide], 20 to 50%.
As for `C[C@H](Nc1ncc2c(-c3ccc(CN4CCN(CCCCOCCCc5ccc6c(c5)n(C)c(=O)n6C5CCC(=O)NC5=O)CC4)cc3)cn([C@H]3CC[C@H](O)CC3)c2n1)C(F)F` (stereo partly shown) [I-185], the figure is > 50%.
As for `CCC[C@H](C)Nc1ncc2c(-c3ccc(CN4CCN(C5CC(OCCc6ccc7c(c6)n(C)c(=O)n7C6CCC(=O)NC6=O)C5)CC4)cc3)cn([C@H]3CC[C@@](C)(O)CC3)c2n1` (stereo partly drawn) [I-187, 3-[3-methyl-2-oxo-5-[2-(3-[4-[(4-[2-[(2S)-pentan-2-ylamino]-7-[cis-4-hydroxy-4-methylcyclohexyl]pyrrolo[2,3-d]pyrimidin-5-yl]phenyl)methyl]piperazin-1-yl]cyclobutoxy)ethyl]-1,3-benzodiazol-1-yl]piperidine-2,6-dione; formic acid], the figure is > 50%.
Turning to `CCC[C@H](C)Nc1ncc2c(-c3ccc(CN4CCN(C5CC(OCCc6ccc7c(c6)n(C)c(=O)n7C6CCC(=O)NC6=O)C5)CC4)cc3)cn([C@H]3CC[C@](C)(O)CC3)c2n1` (stereo partly drawn) [I-188, 3-[3-methyl-2-oxo-5-[2-(3-[4-[(4-[2-[(2S)-pentan-2-ylamino]-7-[trans-4-hydroxy-4-methylcyclohexyl]pyrrolo[2,3-d]pyrimidin-5-yl]phenyl)methyl]piperazin-1-yl]cyclobutoxy)ethyl]-1,3-benzodiazol-1-yl]piperidine-2,6-dione; formic acid], the Dmax is > 50%.
Turning to `CCC[C@H](C)Nc1ncc2c(-c3ccc(CN4CCN(CCCOC5CCN(Cc6ccc7c(c6)n(C)c(=O)n7C6CCC(=O)NC6=O)CC5)CC4)cc3)cn([C@H]3CC[C@H](O)CC3)c2n1` (stereo partly drawn) [I-189, 3-(3-methyl-2-oxo-5-[[4-(3-[4-[(4-[2-[(2S)-pentan-2-ylamino]-7-[trans-4-hydroxycyclohexyl]pyrrolo[2,3-d]pyrimidin-5-yl]phenyl)methyl]piperazin-1-yl]propoxy)piperidin-1-y1]methyl]-1,3-benzodiazol-1-y1)piperidine-2,6-dione; formic acid], the Dmax is > 50%.
With `Cc1ncsc1-c1ccc(CNC(=O)[C@@H]2C[C@@H](O)CN2C(=O)[C@@H](NC(=O)C2(F)CC2)C(C)(C)C)c(OCCOCCOCCOCCN2CCN(Cc3ccc(-c4cn([C@H]5CC[C@H](O)CC5)c5nc(NCCC(F)(F)F)ncc45)cc3)CC2)c1` [I-190], the Dmax was > 50%.
The figure for `Cc1cc(CNCc2ccc(C(=O)N3CC(C4CCN(Cc5ccc(-c6cn([C@H]7CC[C@H](O)CC7)c7nc(NCCC(F)(F)F)ncc67)cc5)CC4)C3)cc2)ccc1-c1ccc2nn(CC3CC3)cc2c1` [I-191, trans-4-[5-[4-([4-[1-(4-[[([4-[2-(cyclopropylmethyl)indazol-5-yl]-3-methylphenyl]methyl)amino]methyl]benzoyl)azetidin-3-yl]piperidin-1-yl]methyl)phenyl]-2-[(3,3,3-trifluoropropyl)amino]pyrrolo[2,3-d]pyrimidin-7-yl]cyclohexan-1-ol] is < 20%; for `C[C@H](CC(F)(F)F)Nc1ncc2c(-c3ccc(CN4CCN(C5CC(OCCc6ccc7c(c6)n(C)c(=O)n7C6CCC(=O)NC6=O)C5)CC4)cc3)cn([C@H]3CC[C@H](O)CC3)c2n1` (stereo partly drawn) [I-194, 3-[3-methyl-2-oxo-5-[2-(3-[4-[(4-[7-[trans-4-hydroxycyclohexy1]-2-[[(2R)-4,4,4-trifluorobutan-2-yl]amino]pyrrolo[2,3-d]pyrimidin-5-yl]phenyl)methyl]piperazin-1-yl]cyclobutoxy)ethyl]-1,3-benzodiazol-1-yl]piperidine-2,6-dione] it is > 50%.
